For series [1], the target named is T1, eIF-2-alpha kinase GCN2 (Homo sapiens, UniProt Q9P2K8). Nature of the series: Inhibition of GCN2 (unknown origin).
Series [2] deals with T1, eIF-2-alpha kinase GCN2. Nature of the series: Inhibition of GCN2 in human SK-OV-3 cells assessed as reduction in phosphorylation of eIF2alpha by cellular assay. Format: cell-based.
A short description of series [3]: […] in Sprague-Dawley rat […] assessed as half life at 0.5 mg/kg,iv. Format: ADME, organism-based.
Series [4] is described as follows: AUC (0-infinity) in Sprague-Dawley rat at 2 mg/kg,po. The class given is ADME, organism-based. Also noted: time infinity, dose 2 mg/kg, route po. As to conditions: in vivo.
Series [5] is described as follows: Oral bioavailability in Sprague-Dawley rat at 2 mg/kg. The class given is ADME, organism-based. Conditions: in vivo.

Where only a bound is given, the exact number is not on record here.

T1 sequence (Q9P2K8 whole entry): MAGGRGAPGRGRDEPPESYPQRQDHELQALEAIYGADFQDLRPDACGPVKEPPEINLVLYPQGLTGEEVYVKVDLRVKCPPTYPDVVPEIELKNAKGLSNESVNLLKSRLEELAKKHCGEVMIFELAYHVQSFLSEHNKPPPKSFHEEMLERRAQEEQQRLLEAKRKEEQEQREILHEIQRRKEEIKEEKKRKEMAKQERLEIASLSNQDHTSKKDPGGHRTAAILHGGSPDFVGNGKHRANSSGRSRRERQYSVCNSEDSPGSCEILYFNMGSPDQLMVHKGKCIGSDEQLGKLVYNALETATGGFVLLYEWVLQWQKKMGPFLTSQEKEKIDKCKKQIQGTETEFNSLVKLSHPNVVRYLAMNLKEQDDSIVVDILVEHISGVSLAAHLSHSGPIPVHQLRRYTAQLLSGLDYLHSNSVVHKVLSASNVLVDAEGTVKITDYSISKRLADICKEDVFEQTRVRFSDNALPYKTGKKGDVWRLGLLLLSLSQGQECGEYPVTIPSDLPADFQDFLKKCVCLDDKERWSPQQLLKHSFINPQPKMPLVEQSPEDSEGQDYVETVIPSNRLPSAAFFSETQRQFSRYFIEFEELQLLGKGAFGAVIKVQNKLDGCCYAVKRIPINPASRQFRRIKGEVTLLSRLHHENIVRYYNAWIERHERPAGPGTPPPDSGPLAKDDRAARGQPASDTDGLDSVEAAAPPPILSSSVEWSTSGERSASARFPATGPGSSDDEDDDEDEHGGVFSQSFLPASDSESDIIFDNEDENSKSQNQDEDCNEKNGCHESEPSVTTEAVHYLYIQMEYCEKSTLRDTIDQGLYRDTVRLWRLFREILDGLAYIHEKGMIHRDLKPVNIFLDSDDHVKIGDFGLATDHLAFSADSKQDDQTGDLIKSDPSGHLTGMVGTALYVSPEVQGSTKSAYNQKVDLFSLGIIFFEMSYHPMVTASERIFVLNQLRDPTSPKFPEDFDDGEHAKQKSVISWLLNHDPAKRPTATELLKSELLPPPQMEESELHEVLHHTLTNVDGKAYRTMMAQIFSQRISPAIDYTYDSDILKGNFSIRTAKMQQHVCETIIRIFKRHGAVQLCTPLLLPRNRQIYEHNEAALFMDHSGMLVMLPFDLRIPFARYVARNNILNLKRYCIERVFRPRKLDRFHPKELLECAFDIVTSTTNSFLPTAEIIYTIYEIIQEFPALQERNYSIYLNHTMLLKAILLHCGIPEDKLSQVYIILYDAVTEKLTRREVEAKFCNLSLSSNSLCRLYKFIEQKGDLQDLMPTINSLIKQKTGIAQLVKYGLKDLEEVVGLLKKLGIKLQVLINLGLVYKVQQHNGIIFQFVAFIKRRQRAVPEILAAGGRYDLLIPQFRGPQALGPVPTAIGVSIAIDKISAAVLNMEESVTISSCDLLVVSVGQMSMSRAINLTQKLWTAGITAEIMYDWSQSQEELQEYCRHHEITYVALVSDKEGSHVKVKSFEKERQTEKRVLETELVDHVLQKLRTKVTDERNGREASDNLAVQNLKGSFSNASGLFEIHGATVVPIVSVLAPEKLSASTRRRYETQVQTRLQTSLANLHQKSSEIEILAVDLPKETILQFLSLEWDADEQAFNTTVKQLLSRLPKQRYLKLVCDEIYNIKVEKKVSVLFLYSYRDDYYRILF

For orientation: IC50 means the point on the concentration scale where inhibition reaches its midpoint. As to `COCCC(=O)N[C@@H]1CC[C@@H](Nc2ncc3c(Br)nn(-c4ccc5ncccc5c4)c3n2)C1`, the IC50 was 74 nM against eIF-2-alpha kinase GCN2 [1] and 159 nM at eIF-2-alpha kinase GCN2 [2]. Taken in the same sequence, the figures for `COCCNC(=O)[C@H]1CC[C@H](Nc2ncc3c(Br)nn(-c4ccc5ncccc5c4)c3n2)CC1` were 159 nM and 628 nM. `CCn1cc(Nc2ccn3ncc(-c4ccc(OC)cc4)c3n2)cn1` came in with an IC50 against eIF-2-alpha kinase GCN2 [1] above 1000 nM. Consider `CNC(=O)[C@]1(C)CC[C@@H](Nc2ncc3c(Br)nn(-c4ccc(-c5nnc(C)s5)c(F)c4)c3n2)C1`, for which the results for the IC50 on eIF-2-alpha kinase GCN2 [1] and on eIF-2-alpha kinase GCN2 [2] were 8 nM and 33 nM, respectively. On to `CNC(=O)[C@]1(C)CC[C@@H](Nc2ncc3c(Br)nn(-c4ccc(-c5nnc(C)s5)c(CC#N)c4)c3n2)C1`, for which inhibition against eIF-2-alpha kinase GCN2 [1] was half-maximal at 78 nM (IC50). Same read-out and setting: the value for `CNC(=O)[C@]1(C)CC[C@@H](Nc2ncc3c(Br)nn(-c4ccc(-c5nnc(C)s5)c(S(C)(=O)=O)c4)c3n2)C1` was 61 nM; that for `FC(F)(F)c1nn(-c2ccc3ncccc3c2)c2nc(Nc3cnn(C4CCNCC4)c3)ncc12` was 168 nM; that for `CNC(=O)[C@]1(C)CC[C@@H](Nc2ncc3c(Br)nn(-c4ccc(-c5nnc(C)s5)cc4F)c3n2)C1` was 359 nM. Usually half-life stands for the time needed for the level to fall by half in the phase considered. As a reminder, the AUC(0-inf) is the area under the concentration-time curve extrapolated to infinity. Read a low AUC(0-inf) as low exposure. As a reminder, the bioavailability is dose-corrected exposure relative to a reference, in per cent. Lower therefore signals little systemic uptake. Regarding `CNC(=O)[C@]1(C)CC[C@@H](Nc2ncc3c(Br)nn(-c4ccc(-c5nnc(C)s5)c(C#N)c4)c3n2)C1`, the values for the IC50 at eIF-2-alpha kinase GCN2 [1] and at eIF-2-alpha kinase GCN2 [2] were 8 nM and 35 nM, respectively. In series [3], the half-life came to 51 min. Besides, the AUC(0-inf) in series [4] worked out at 1150 ng·h/mL. In addition, the bioavailability in series [5] is 39%. In the case of `CNS(=O)(=O)[C@@H]1CC[C@@H](Nc2ncc3c(Br)nn(-c4ccc5ncccc5c4)c3n2)C1`, the IC50 against eIF-2-alpha kinase GCN2 [1] was determined as 43 nM; on eIF-2-alpha kinase GCN2 [2] it was 106 nM. For the compound `CCn1cc(Nc2ncc3cccc(-c4ccc(OC)cc4)c3n2)cn1`, the IC50 against eIF-2-alpha kinase GCN2 [1] is above 1000 nM. For the compound `CNC(=O)[C@]1(C)CC[C@@H](Nc2ncc3c(Br)nn(-c4ccc(-c5nnc(C)s5)c(CCN)c4)c3n2)C1`, the values for the IC50 at eIF-2-alpha kinase GCN2 [1] and at eIF-2-alpha kinase GCN2 [2] were 15 nM and 240 nM, respectively. On to `CCn1cc(Nc2ncc3c(C)nn(-c4ccc(OC)cc4)c3n2)cn1`, for which, at eIF-2-alpha kinase GCN2 [1], the IC50 was 81 nM. On to `CNC(=O)[C@]1(C)CC[C@@H](Nc2ncc3c(Br)nn(-c4ccc(-c5nnc(C)s5)c(CCS(C)(=O)=O)c4)c3n2)C1`, for which the IC50 at eIF-2-alpha kinase GCN2 [1] came to 2 nM; at eIF-2-alpha kinase GCN2 [2], 9 nM. Besides, the half-life in series [3] stood at 39 min. Also, in series [4], the AUC(0-inf) was 26 ng·h/mL. In series [5], this compound displayed a bioavailability of 3%. At eIF-2-alpha kinase GCN2 [1], `Cc1nn(-c2ccc3ncccc3c2)c2nc(Nc3cnn(C4CCNCC4)c3)ncc12` gave an IC50 of 11 nM.

In turn, `CCn1cc(Nc2ncc3ccn(-c4ccc(OC)cc4)c3n2)cn1` gave a concentration for half-maximal inhibition (IC50) on eIF-2-alpha kinase GCN2 [1] of 405 nM. The same measure, in the same setting: then `CNC(=O)[C@]1(C)CC[C@@H](Nc2ncc3c(Br)nn(-c4ccc(-c5cnc(C)s5)cc4)c3n2)C1`, with 27 nM.

As for `Brc1nn(-c2ccc3ncccc3c2)c2nc(Nc3cnn(C4CCNCC4)c3)ncc12`, the IC50 is 3 nM against eIF-2-alpha kinase GCN2 [1] and 610 nM on eIF-2-alpha kinase GCN2 [2]. Taken in the same sequence, the figures for `CNC(=O)[C@]1(C)CC[C@@H](Nc2ncc3c(Br)nn(-c4ccc5ncccc5c4)c3n2)C1` were 17 nM and 21 nM.

On to `COCc1noc([C@@H]2CC[C@@H](Nc3ncc4c(Br)nn(-c5ccc6ncccc6c5)c4n3)C2)n1`, for which, at eIF-2-alpha kinase GCN2 [1], the IC50 stood at 106 nM.

On to `CNC(=O)[C@@H]1CC[C@@H](Nc2ncc3c(Br)nn(-c4ccc5ncccc5c4)c3n2)C1`, for which the values for the IC50 at eIF-2-alpha kinase GCN2 [1] and on eIF-2-alpha kinase GCN2 [2] were 21 nM and 25 nM, respectively.

`CCn1cc(Nc2ncc3cnn(-c4ccc(OC)cc4)c3n2)cn1`: it took 133 nM to reach half-maximal inhibition against eIF-2-alpha kinase GCN2 [1] (IC50).

For the compound `CNC(=O)[C@]1(C)CC[C@@H](Nc2ncc3c(Br)nn(-c4ccc(-c5nnc(C)s5)c(CCO)c4)c3n2)C1`, the IC50 worked out at 16 nM against eIF-2-alpha kinase GCN2 [1] and 25 nM on eIF-2-alpha kinase GCN2 [2]. For the same compound, the half-life in series [3] amounted to 47 min. The AUC(0-inf) in series [4] was 518 ng·h/mL. The compound further yielded a bioavailability in series [5] of 15%.

`Brc1nn(-c2ccc3ncccc3c2)c2nc(N[C@@H]3CC[C@@H](c4ncc[nH]4)C3)ncc12` (relative stereo): the IC50 against eIF-2-alpha kinase GCN2 [1] amounted to 21 nM; at eIF-2-alpha kinase GCN2 [2] it was 545 nM. The matching figures for `COCCS(=O)(=O)N[C@@H]1CC[C@@H](Nc2ncc3c(Br)nn(-c4ccc5ncccc5c4)c3n2)C1` (relative stereo): 55 nM and 262 nM.

`CNC(=O)[C@]1(C)CC[C@@H](Nc2ncc3c(Br)nn(-c4ccc(-c5ncc(C)s5)cc4)c3n2)C1` displayed an IC50 against eIF-2-alpha kinase GCN2 [1] of 76 nM. As to `CNC(=O)[C@]1(C)CC[C@@H](Nc2ncc3c(Br)nn(-c4ccc(-c5nnc(C)s5)c(CCN(C)C)c4)c3n2)C1`, at eIF-2-alpha kinase GCN2 [1], half-maximal inhibition (IC50) was put at 29 nM. As to `CS(=O)(=O)N1CC[C@@H](Nc2ncc3c(Br)nn(-c4ccc5ncccc5c4)c3n2)C1`, the IC50 on eIF-2-alpha kinase GCN2 [1] was 90 nM; at eIF-2-alpha kinase GCN2 [2], 378 nM. With `COCCNC(=O)[C@@H]1CC[C@H](Nc2ncc3c(Br)nn(-c4ccc5ncccc5c4)c3n2)C1`, the 50% inhibitory concentration (IC50) against eIF-2-alpha kinase GCN2 [1] came out at 923 nM.

Turning to `Clc1nn(-c2ccc3ncccc3c2)c2nc(Nc3cnn(C4CCNCC4)c3)ncc12`, the IC50 against eIF-2-alpha kinase GCN2 [1] came out at 5 nM.

`CCn1cc(Nc2ncc3c(C)nn(-c4ccc(C#N)cc4)c3n2)cn1` displayed an IC50 against eIF-2-alpha kinase GCN2 [1] of 56 nM.

On to `CNC(=O)[C@]1(C)CC[C@@H](Nc2ncc3c(Br)nn(-c4ccc(-c5nnc(C)o5)cc4)c3n2)C1`, for which the concentration for half-maximal inhibition (IC50) against eIF-2-alpha kinase GCN2 [1] and on eIF-2-alpha kinase GCN2 [2] was 16 nM each time. Consider `COCCNC(=O)CCNc1ncc2c(Br)nn(-c3ccc4ncccc4c3)c2n1`, for which the IC50 on eIF-2-alpha kinase GCN2 [1] was above 1000 nM.

Turning to `COCCNC(=O)[C@H]1CC[C@H](Nc2ncc3c(Br)nn(-c4ccc5ncccc5c4)c3n2)C1`, the IC50 came out at 144 nM on eIF-2-alpha kinase GCN2 [1] and 183 nM at eIF-2-alpha kinase GCN2 [2]. Taken in the same sequence, the figures for `COCCNC(=O)[C@H]1C[C@H](Nc2ncc3c(Br)nn(-c4ccc5ncccc5c4)c3n2)C1` were 40 nM and 86 nM. Regarding `CNC(=O)[C@]1(C)CC[C@@H](Nc2ncc3c(Br)nn(-c4ccc(-c5nnc(C)s5)c(CNS(C)(=O)=O)c4)c3n2)C1`, the IC50 against eIF-2-alpha kinase GCN2 [1] turned out to be 109 nM. In turn, `COCCNC(=O)CNc1ncc2c(Br)nn(-c3ccc4ncccc4c3)c2n1` displayed an IC50 against eIF-2-alpha kinase GCN2 [1] above 1000 nM.

For the compound `COCCNC(=O)[C@@H]1CC[C@@H](Nc2ncc3c(Br)nn(-c4ccc5ncccc5c4)c3n2)C1`, the figures for the IC50 against eIF-2-alpha kinase GCN2 [1] and at eIF-2-alpha kinase GCN2 [2] were 5 nM and 20 nM, respectively. Take `CNC(=O)[C@]1(C)CC[C@@H](Nc2ncc3c(Br)nn(-c4ccc(-c5nnc(C)s5)c(CCC#N)c4)c3n2)C1`: the IC50 came to 10 nM on eIF-2-alpha kinase GCN2 [1] and 29 nM at eIF-2-alpha kinase GCN2 [2]. The half-life in series [3] was 13 min. Further, the AUC(0-inf) in series [4] was 1900 ng·h/mL. Further, the bioavailability in series [5] was found to be 42%.

For `COCCNC(=O)[C@H]1CC[C@@H](Nc2ncc3c(Br)nn(-c4ccc5ncccc5c4)c3n2)CC1`, the results for the IC50 against eIF-2-alpha kinase GCN2 [1] and on eIF-2-alpha kinase GCN2 [2] were 211 nM and 763 nM, respectively.

With `CNC(=O)[C@]1(C)CC[C@@H](Nc2ncc3c(Br)nn(-c4ccc(-c5nnc(C)s5)c(CS(C)(=O)=O)c4)c3n2)C1`, on eIF-2-alpha kinase GCN2 [1], the midpoint of inhibition, the IC50, lay at 211 nM. For the compound `COCCNC(=O)[C@H]1CC[C@@H](Nc2ncc3c(Br)nn(-c4ccc5ncccc5c4)c3n2)C1`, the IC50 against eIF-2-alpha kinase GCN2 [1] was 61 nM; at eIF-2-alpha kinase GCN2 [2], 156 nM.

Consider `CCn1cc(Nc2ncc3cccc(Nc4ccc(OC)cc4)c3n2)cn1`, for which the IC50 against eIF-2-alpha kinase GCN2 [1] was above 1000 nM. Still for that read-out and setting: then `CCn1cc(Nc2ncc3c(C)nn(-c4ccc5ncccc5c4)c3n2)cn1`, with 23 nM; and `CNC(=O)[C@]1(C)CC[C@@H](Nc2ncc3c(Br)nn(-c4ccc(-c5nnc(C)s5)c(CO)c4)c3n2)C1`, with 91 nM.

Values taken from ChEMBL document CHEMBL5108048, “Potent GCN2 Inhibitor Capable of Reversing MDSC-Driven T Cell Suppression Demonstrates In Vivo Efficacy as a Single Agent and in Combination with Anti-Angiogenesis Therapy” (J Med Chem, 2022).
